These results are taken from article PMC4051630, “A Comparison of Protein Kinases Inhibitor Screening Methods Using Both Enzymatic Activity and Binding Affinity Determination” (PLoS ONE, 2014).

What all share (experiment): Differential Scanning Fluorimetry (DSF) Tm shift
Holding throughout (assay type): binding

One test has as its target T1, FES Catalytic Domain+SH2 (Homo sapiens, UniProt P07332).
T1 construct: for 8, we also made a longer version containing one or more additional domains; His-tag; made in house; host or cells: Escherichia coli
As to conditions: 2 µM protein, 10 µM inhibitor, average of 3 experiments, each in duplicate.

The next test concerns the target T2, PAK4 Catalytic Domain (Homo sapiens, UniProt O96013).
T2 construct: For all of them, we expressed and purified the catalytic domain separately; His-tag; made in house; host or cells: Escherichia coli
The settings on record: 2 µM protein, 10 µM inhibitor, average of 3 experiments, each in duplicate.

In another test the target is SRC Catalytic Domain (Homo sapiens, UniProt P12931). The arrangement: For all of them, we expressed and purified the catalytic domain separately; His-tag; made in house; host or cells: Escherichia coli. As to conditions: 2 µM protein, 10 µM inhibitor, average of 3 experiments, each in duplicate.
The next test addresses T3, CDK2 + Cyclin A (Homo sapiens, UniProt P24941).
T3 construct: CDK2 (P24941); 1–299; His-tag; made in house; host or cells: Escherichia coli
The settings on record: CDK2 + Cyclin A; 2 µM protein, 10 µM inhibitor; average of 3 experiments, each in duplicate.

Test [1] has as its target T4, PAK4 Catalytic Domain+PBD (Homo sapiens, UniProt O96013).
T4 construct: for 8, we also made a longer version containing one or more additional domains; His-tag; made in house; host or cells: Escherichia coli
As to conditions: 2 µM protein, 10 µM inhibitor, average of 3 experiments, each in duplicate.

The target in the next test is T5, FES Catalytic Domain (Homo sapiens, UniProt P07332).
T5 construct: For all of them, we expressed and purified the catalytic domain separately; His-tag; made in house; host or cells: Escherichia coli
T5 sequence (P07332 561-822 limits assumed): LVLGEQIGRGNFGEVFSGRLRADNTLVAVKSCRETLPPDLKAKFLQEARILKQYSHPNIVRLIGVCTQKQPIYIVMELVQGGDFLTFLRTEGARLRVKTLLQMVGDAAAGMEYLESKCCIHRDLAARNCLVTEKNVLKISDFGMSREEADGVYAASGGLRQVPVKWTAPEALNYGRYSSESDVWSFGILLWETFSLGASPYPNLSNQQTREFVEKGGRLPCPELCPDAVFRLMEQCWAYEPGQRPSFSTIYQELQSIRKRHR
The settings on record: 2 µM protein, 10 µM inhibitor, average of 3 experiments, each in duplicate.

Test [2] deals with T6, STK3 Catalytic domain+SARAH (Homo sapiens, UniProt Q13188).
T6 construct: for 8, we also made a longer version containing one or more additional domains; His-tag; made in house; host or cells: Escherichia coli
T6 sequence (Q13188 1-491): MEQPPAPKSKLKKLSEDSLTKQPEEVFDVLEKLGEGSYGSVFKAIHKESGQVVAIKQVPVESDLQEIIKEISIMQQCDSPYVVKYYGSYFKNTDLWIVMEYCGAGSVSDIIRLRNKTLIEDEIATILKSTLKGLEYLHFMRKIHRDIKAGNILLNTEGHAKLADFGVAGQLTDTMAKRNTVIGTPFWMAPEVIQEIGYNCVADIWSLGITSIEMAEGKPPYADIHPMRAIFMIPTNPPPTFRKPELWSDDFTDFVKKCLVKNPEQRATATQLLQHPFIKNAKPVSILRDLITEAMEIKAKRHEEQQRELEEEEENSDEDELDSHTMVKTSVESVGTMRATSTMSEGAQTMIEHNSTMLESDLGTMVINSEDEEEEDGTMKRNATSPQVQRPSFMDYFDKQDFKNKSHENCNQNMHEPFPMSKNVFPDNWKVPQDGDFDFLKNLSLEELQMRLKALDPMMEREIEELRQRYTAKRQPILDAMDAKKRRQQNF
The settings on record: 2 µM protein, 10 µM inhibitor, average of 3 experiments, each in duplicate.

For test [3], the target named is SRC Catalytic Domain+SH2+SH3 (Homo sapiens, UniProt P12931). The settings on record: 2 µM protein, 10 µM inhibitor, average of 3 experiments, each in duplicate.
The next test has as its target T7, AKT3 Catalytic Domain (Homo sapiens, UniProt Q9Y243).
T7 construct: AKT3 (Q9Y243); CD; His-tag; made in house; host or cells: Escherichia coli
As to conditions: 2 µM protein, 10 µM inhibitor, average of 3 experiments, each in duplicate.

A further test has as its target T8, PAK7 Catalytic Domain (Homo sapiens, UniProt Q9P286).
T8 construct: For all of them, we expressed and purified the catalytic domain separately; His-tag; made in house; host or cells: Escherichia coli
As to conditions: 2 µM protein, 10 µM inhibitor, average of 3 experiments, each in duplicate.

A further test has as its target T9, CDK2 + Cyclin E (Homo sapiens, UniProt P24941).
T9 construct: CDK2 (P24941); 1–299; His-tag; made in house; host or cells: Escherichia coli
The settings on record: CDK2 + Cyclin E; 2 µM protein, 10 µM inhibitor; average of 3 experiments, each in duplicate.

Another test addresses T10, CHK2 Catalytic Domain (Homo sapiens, UniProt O96017).
T10 construct: For all of them, we expressed and purified the catalytic domain separately; His-tag; made in house; host or cells: Escherichia coli
The settings on record: 2 µM protein, 10 µM inhibitor, average of 3 experiments, each in duplicate.

The target in the next test is T11, STK3 Catalytic Domain (Homo sapiens, UniProt Q13188).
T11 construct: For all of them, we expressed and purified the catalytic domain separately; His-tag; made in house; host or cells: Escherichia coli
T11 sequence (Q13188 27-278 limits assumed): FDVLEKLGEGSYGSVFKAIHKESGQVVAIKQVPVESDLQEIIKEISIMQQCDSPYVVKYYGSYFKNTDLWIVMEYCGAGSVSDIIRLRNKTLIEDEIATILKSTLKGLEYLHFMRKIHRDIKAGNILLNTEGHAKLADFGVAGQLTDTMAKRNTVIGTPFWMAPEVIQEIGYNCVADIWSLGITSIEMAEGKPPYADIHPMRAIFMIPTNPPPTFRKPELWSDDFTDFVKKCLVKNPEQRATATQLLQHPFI
As to conditions: 2 µM protein, 10 µM inhibitor, average of 3 experiments, each in duplicate.

A further test addresses T12, DMPK Catalytic Domain (Homo sapiens, UniProt Q09013).
T12 construct: For all of them, we expressed and purified the catalytic domain separately; His-tag; made in house; host or cells: Escherichia coli
T12 sequence (Q09013 71-339 limits assumed): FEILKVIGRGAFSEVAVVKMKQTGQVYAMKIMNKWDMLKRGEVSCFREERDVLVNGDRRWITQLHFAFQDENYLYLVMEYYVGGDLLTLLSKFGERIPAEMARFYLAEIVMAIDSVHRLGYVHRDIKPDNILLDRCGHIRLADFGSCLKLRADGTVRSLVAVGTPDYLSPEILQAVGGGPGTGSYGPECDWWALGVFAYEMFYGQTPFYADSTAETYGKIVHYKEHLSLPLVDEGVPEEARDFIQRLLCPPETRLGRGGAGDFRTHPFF
The settings on record: 2 µM protein, 10 µM inhibitor, average of 3 experiments, each in duplicate.

The target of another test is T13, FAK2 Catalytic Domain (Homo sapiens, UniProt Q14289).
T13 construct: For all of them, we expressed and purified the catalytic domain separately; His-tag; made in house; host or cells: Escherichia coli
T13 sequence (Q14289 425-683 limits assumed): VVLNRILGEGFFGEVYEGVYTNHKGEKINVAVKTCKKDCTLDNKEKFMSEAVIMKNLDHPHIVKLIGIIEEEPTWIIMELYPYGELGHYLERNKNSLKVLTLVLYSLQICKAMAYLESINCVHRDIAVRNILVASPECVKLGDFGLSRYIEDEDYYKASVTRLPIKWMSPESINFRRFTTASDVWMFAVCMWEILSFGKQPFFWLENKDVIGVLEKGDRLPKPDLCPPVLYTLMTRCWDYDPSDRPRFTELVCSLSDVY
As to conditions: 2 µM protein, 10 µM inhibitor, average of 3 experiments, each in duplicate.

T10 sequence (O96017 220-486 limits assumed): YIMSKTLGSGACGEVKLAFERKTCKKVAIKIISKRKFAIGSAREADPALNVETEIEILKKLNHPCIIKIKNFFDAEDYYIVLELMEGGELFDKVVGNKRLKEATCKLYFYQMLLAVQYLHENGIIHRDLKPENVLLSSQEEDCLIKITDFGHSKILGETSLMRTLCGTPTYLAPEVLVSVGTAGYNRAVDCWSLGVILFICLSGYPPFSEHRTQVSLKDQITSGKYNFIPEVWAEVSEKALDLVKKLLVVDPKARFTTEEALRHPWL
T7 sequence (Q9Y243 122-479): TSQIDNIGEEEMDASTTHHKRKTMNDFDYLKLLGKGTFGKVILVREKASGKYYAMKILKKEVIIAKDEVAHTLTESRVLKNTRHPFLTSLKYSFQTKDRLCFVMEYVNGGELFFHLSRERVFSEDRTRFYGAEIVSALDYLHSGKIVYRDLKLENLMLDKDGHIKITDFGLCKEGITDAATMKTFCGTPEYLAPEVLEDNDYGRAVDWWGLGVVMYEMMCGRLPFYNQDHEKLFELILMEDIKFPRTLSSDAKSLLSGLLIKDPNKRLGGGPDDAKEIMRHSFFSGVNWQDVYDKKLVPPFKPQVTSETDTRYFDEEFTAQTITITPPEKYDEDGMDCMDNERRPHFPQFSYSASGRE
T1 sequence (P07332 448-822 limits assumed): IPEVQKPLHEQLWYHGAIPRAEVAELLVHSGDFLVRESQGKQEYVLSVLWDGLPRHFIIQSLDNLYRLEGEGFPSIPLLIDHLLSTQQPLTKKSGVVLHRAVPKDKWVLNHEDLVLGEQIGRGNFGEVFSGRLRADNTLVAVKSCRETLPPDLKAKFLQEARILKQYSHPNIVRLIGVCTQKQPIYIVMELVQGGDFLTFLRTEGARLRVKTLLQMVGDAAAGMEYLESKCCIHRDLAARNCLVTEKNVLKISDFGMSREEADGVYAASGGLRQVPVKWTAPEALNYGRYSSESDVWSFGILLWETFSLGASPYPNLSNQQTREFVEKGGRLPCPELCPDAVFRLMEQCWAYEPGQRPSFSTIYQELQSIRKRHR
T8 sequence (Q9P286 449-700 limits assumed): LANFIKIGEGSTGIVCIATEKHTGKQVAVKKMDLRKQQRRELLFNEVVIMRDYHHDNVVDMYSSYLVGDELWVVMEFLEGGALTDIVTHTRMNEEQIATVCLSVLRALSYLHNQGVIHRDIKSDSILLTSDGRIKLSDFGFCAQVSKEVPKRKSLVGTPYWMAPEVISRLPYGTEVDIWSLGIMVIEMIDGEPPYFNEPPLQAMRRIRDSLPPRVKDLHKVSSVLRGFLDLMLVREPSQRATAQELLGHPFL
T2 sequence (O96013 321-572 limits assumed): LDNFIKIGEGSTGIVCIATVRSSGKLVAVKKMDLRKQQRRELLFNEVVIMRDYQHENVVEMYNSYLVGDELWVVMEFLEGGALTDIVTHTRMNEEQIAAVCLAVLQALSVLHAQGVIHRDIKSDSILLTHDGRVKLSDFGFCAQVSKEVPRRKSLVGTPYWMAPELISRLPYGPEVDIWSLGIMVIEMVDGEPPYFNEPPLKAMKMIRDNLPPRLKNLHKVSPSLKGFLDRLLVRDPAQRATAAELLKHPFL
T4 sequence (O96013 whole entry, the tested form may be a part): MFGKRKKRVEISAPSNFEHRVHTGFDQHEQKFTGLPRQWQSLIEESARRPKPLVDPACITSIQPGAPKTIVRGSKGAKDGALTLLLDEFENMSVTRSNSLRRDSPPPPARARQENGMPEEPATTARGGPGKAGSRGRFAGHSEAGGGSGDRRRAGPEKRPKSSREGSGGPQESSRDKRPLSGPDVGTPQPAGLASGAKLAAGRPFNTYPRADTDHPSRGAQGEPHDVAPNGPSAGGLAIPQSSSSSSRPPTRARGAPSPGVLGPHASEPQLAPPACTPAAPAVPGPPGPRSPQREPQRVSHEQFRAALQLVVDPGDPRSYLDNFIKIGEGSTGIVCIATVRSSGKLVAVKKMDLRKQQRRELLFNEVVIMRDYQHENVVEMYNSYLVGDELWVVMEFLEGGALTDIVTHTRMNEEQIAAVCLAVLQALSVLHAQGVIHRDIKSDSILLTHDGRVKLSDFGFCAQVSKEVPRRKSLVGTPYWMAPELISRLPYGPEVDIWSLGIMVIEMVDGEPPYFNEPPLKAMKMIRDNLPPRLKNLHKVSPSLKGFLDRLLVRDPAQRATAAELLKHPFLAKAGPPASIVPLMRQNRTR

Take `COc1cc2ncnc(Nc3ccc(OCc4ccccc4)cc3)c2cc1OC` [EGFR/ErbB-2 Inhibitor]: the “Melting temperature (Tm) shift” value is reported as 0.1 degrees Celcius at FES Catalytic Domain+SH2; 0.3 degrees Celcius at PAK4 Catalytic Domain; 1.4 degrees Celcius at SRC Catalytic Domain; 0.0 degrees Celcius at CDK2 + Cyclin A; 0.0 degrees Celcius in [1]; 0.0 degrees Celcius on FES Catalytic Domain. Moreover, the “Melting temperature (Tm) shift” value is given as 0.2 degrees Celcius in test [2]; 0.8 degrees Celcius in [3]; 0.1 degrees Celcius on AKT3 Catalytic Domain; 0.0 degrees Celcius on PAK7 Catalytic Domain; 0.1 degrees Celcius at CDK2 + Cyclin E; 11.2 degrees Celcius on CHK2 Catalytic Domain. For the same compound, the “Melting temperature (Tm) shift” value on STK3 Catalytic Domain stood at 0.2 degrees Celcius; at DMPK Catalytic Domain, 0.3 degrees Celcius.
With `O=C(c1cc2cc(O)ccc2[nH]1)c1cc2cc(O)ccc2[nH]1` [Flt-3 Inhibitor II], the “Melting temperature (Tm) shift” value on FES Catalytic Domain+SH2 was 0.0 degrees Celcius; on PAK4 Catalytic Domain, 0.9 degrees Celcius; on SRC Catalytic Domain, 1.3 degrees Celcius; on CDK2 + Cyclin A it was 0.9 degrees Celcius; in test [1], 0.9 degrees Celcius; on FES Catalytic Domain, 1.0 degrees Celcius. For the same compound, the “Melting temperature (Tm) shift” value turned out to be 2.3 degrees Celcius in test [2]; 1.3 degrees Celcius in test [3]; 0.1 degrees Celcius at AKT3 Catalytic Domain; 0.6 degrees Celcius on PAK7 Catalytic Domain; 0.2 degrees Celcius at CDK2 + Cyclin E; 0.4 degrees Celcius on FAK2 Catalytic Domain. The “Melting temperature (Tm) shift” value at CHK2 Catalytic Domain is given as 2.2 degrees Celcius; at STK3 Catalytic Domain it was 2.3 degrees Celcius.
Turning to `COc1ccc2c(c1)c(C1=C(c3c[nH]c4ccccc34)C(=O)NC1=O)cn2CCCN(C)C` [Gö 6983], the “Melting temperature (Tm) shift” value is reported as 0.7 degrees Celcius at FES Catalytic Domain+SH2; 0.0 degrees Celcius at PAK4 Catalytic Domain; 0.2 degrees Celcius on SRC Catalytic Domain; 0.4 degrees Celcius at CDK2 + Cyclin A; 0.9 degrees Celcius at FES Catalytic Domain; 0.7 degrees Celcius in test [2]. Besides, the “Melting temperature (Tm) shift” value on AKT3 Catalytic Domain is 0.0 degrees Celcius; at PAK7 Catalytic Domain, 0.1 degrees Celcius; on CDK2 + Cyclin E, 0.1 degrees Celcius; on CHK2 Catalytic Domain, 5.6 degrees Celcius; on STK3 Catalytic Domain, 0.2 degrees Celcius; on DMPK Catalytic Domain, 1.9 degrees Celcius.
In the case of `O=C1Nc2ccccc2C1=C1Nc2ccccc2C1=NOCCC(O)CO` (centres unmarked) [Indirubin Derivative E804], the “Melting temperature (Tm) shift” value at FES Catalytic Domain+SH2 is 1.0 degrees Celcius; on PAK4 Catalytic Domain, 1.9 degrees Celcius; on SRC Catalytic Domain, 3.1 degrees Celcius; in test [1] it was 2.1 degrees Celcius; on FES Catalytic Domain, 1.1 degrees Celcius; in test [2], 3.5 degrees Celcius. Further, the “Melting temperature (Tm) shift” value in test [3] was 2.8 degrees Celcius; on AKT3 Catalytic Domain it was 0.7 degrees Celcius; at PAK7 Catalytic Domain, 1.7 degrees Celcius; at CDK2 + Cyclin E, 1.1 degrees Celcius; on FAK2 Catalytic Domain, 2.8 degrees Celcius; on CHK2 Catalytic Domain, 2.2 degrees Celcius. Also, the “Melting temperature (Tm) shift” value on STK3 Catalytic Domain turned out to be 5.2 degrees Celcius; at DMPK Catalytic Domain it was 0.6 degrees Celcius.
As to `COc1cc(Nc2ncc3ccn(-c4cccc(CCC#N)c4)c3n2)cc(OC)c1OC` [Keratinocyte Differentiation Inducer], the “Melting temperature (Tm) shift” value on FES Catalytic Domain+SH2 is on record as 3.4 degrees Celcius; at PAK4 Catalytic Domain, 5.5 degrees Celcius; at SRC Catalytic Domain, 3.0 degrees Celcius; at CDK2 + Cyclin A, 4.3 degrees Celcius; in [1], 7.3 degrees Celcius; at FES Catalytic Domain it was 5.5 degrees Celcius. The “Melting temperature (Tm) shift” value is reported as 4.3 degrees Celcius in [2]; 1.8 degrees Celcius in [3]; 0.0 degrees Celcius at AKT3 Catalytic Domain; 0.0 degrees Celcius on PAK7 Catalytic Domain; 2.3 degrees Celcius at CDK2 + Cyclin E; 8.3 degrees Celcius on CHK2 Catalytic Domain. Besides, the “Melting temperature (Tm) shift” value turned out to be 3.6 degrees Celcius at STK3 Catalytic Domain and 3.2 degrees Celcius on DMPK Catalytic Domain.
As to `Cc1cc(C=C2C(=O)C=CC2=O)cc(C)c1O` [TX-1918], the “Melting temperature (Tm) shift” value at SRC Catalytic Domain is 0.0 degrees Celcius; on CDK2 + Cyclin A it was 0.4 degrees Celcius; in [1], 1.1 degrees Celcius; at AKT3 Catalytic Domain, 4.5 degrees Celcius; on CDK2 + Cyclin E it was 0.4 degrees Celcius; at FAK2 Catalytic Domain, 0.5 degrees Celcius. Also, the “Melting temperature (Tm) shift” value is listed as 2.6 degrees Celcius at CHK2 Catalytic Domain and 0.1 degrees Celcius at STK3 Catalytic Domain.
As for Scytonemin [Scytonemin, Lyngbya sp.], the “Melting temperature (Tm) shift” value came out at 0.2 degrees Celcius at FES Catalytic Domain+SH2; 0.6 degrees Celcius at PAK4 Catalytic Domain; 0.0 degrees Celcius at SRC Catalytic Domain; 0.3 degrees Celcius on CDK2 + Cyclin A; 0.7 degrees Celcius in [1]; 0.4 degrees Celcius in test [2]. Further, the “Melting temperature (Tm) shift” value in test [3] came to 0.3 degrees Celcius; on AKT3 Catalytic Domain it was 0.0 degrees Celcius; at PAK7 Catalytic Domain it was 0.0 degrees Celcius; at CDK2 + Cyclin E, 0.8 degrees Celcius; on FAK2 Catalytic Domain, 0.2 degrees Celcius; on STK3 Catalytic Domain it was 0.5 degrees Celcius. On DMPK Catalytic Domain, the “Melting temperature (Tm) shift” value is 0.3 degrees Celcius.
